The nature of the data set: gradient 5% acetonitrile 3 min, to 50% in 2 min, to 85% in 15 min, held 3 min, 100 µL/min. The conditions noted are these: column: Zorbax Extend-C18 2.1 x 50 mm; eluents: water / acetonitrile, 0.1% formic acid. The method, boiled down: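 A Zorbax Extend-C18 column (2.1 × 50 mm, 1.8 μm) run at 100 μL/min with water and acetonitrile, both containing 0.1% formic acid, separated mixtures of ~100 pure standards. The HPLC was coupled to a quadrupole time-of-flight mass spectrometer operated in positive and negative ionization mode, with dead and dwell volumes of 40 μL and 900 μL. Each retention time was taken from a computationally picked adduct peak that was then manually inspected.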
`CCOc1ccc(C2Cn3nnc(-c4nc(-c5ccccn5)no4)c3CO2)cc1` (stereo not given) displayed an RP-LC retention time of 921 s.
The figure for `O=C(Cn1cnc2c(-c3ccc(Cl)cc3)csc2c1=O)NC1CCCC1` is 933 s; for `CCn1ncc(N2CCCC(CC(=O)O)C2)cc1=O` (stereo not given) it is 632 s.
`Cc1cc(C)c2c(-n3cccc3)nn(CC(=O)NCC(C)c3ccccc3)c2n1` (stereo not given) displayed an RP-LC retention time of 1040 s.
The figure for `CCCCNC(=O)C1c2cc(OC)c(OC)cc2C(=O)N(C)C1c1ccc(OC)cc1` (stereo not given) is 764 s; for `CCCS(=O)(=O)N1CCCN(C2=NS(=O)(=O)C(c3ccc(Cl)cc3)=C2C)CC1` it is 934 s; for `O=C(c1cccnc1)N1CCC(c2noc(-c3cnccn3)n2)C1` (stereo not given) it is 581 s.
The figure for `CCOC(=O)Cn1c(C2CC(=O)N(c3cccc(Cl)c3)C2)nc2ccccc21` (stereo not given) is 872 s.
The figure for `O=C(CN1CCOCC1)N1CC(c2nc(CCOCC3CC3)no2)C1` is 577 s; for `CCC(=O)N1CCc2cc(N3CC(C(=O)Nc4ccccc4OC)CC3=O)ccc21` (stereo not given) it is 758 s.
For `CC(C)c1cc(C(=O)NC2CCCCCC2)nc2ccnn12`, the RP-LC retention time was found to be 1170 s.
The compound `COC1=C(OC)C(=O)c2ccccc2C1=O` had an RP-LC retention time of 878 s.
The compound `Fc1ccc(F)c(-c2nc(-c3ccc4nncn4c3)no2)c1` displayed an RP-LC retention time of 801 s.
The figure for `O=C(NCCc1ccccc1)c1nc(Cn2c(=O)oc3ccc(Cl)cc32)no1` is 966 s.
The figure for `COc1cc(NC(=O)C2CCCN(c3cc(=O)n(C)c(=O)n3C)C2)cc(OC)c1` (stereo not given) is 708 s; for `COc1ccc(CNC(=O)c2ccc3c(c2)nc2n3CCN(C(C)C)C2=O)c(OC)c1` it is 708 s; for `COc1ccc(N2CCN(CC(O)c3cccc(OC)c3)CC2)cc1` (stereo not given) it is 657 s.
In turn, `CCn1cc(-c2ccccc2)cc1C(=O)NCC(C)C` gave an RP-LC retention time of 1070 s.
The figure for `Cc1cc(C)cc(NC(=O)Cc2nc(-c3ccccn3)n[nH]2)c1` is 669 s; for `CCCNC(=O)C1CCCN(c2ccc(SCC(=O)Nc3ccc(S(C)(=O)=O)cc3)nn2)C1` (stereo not given) it is 614 s.
The figure for `O=S(=O)(CCc1noc(-c2nccc3ccccc23)n1)c1ccccc1` is 890 s.
The figure for `CCN(CC)C(=O)c1ccc2oc(CN3CCN(C(=O)NC4CCCC4)CC3)nc2c1` is 630 s.
`CCOc1ccccc1C(=O)Nc1c(C(=O)Nc2ccccc2F)oc2cccnc12` displayed an RP-LC retention time of 841 s.
The figure for `CC(C)CCNC(=O)Cn1nc2c3cc(-c4ccc(F)cc4)nn3ccn2c1=O` is 876 s.
The figure for `O=C(NCCc1c[nH]c2ccccc12)c1cc(=O)[nH]c2ccccc12` is 682 s.
Compound `CCn1nnc2cc(-c3noc(C4CC(=O)N(c5cccc(Cl)c5)C4)n3)ccc21` (stereo not given) displayed an RP-LC retention time of 809 s.
The figure for `COc1cccc(OC)c1CN1C[C@@H](CO)[C@H](c2ccncc2)C1` is 500 s.
For the compound `CCN1CCN(C2CCN(C(=O)c3cccc(Br)c3)CC2)C1=O`, the RP-LC retention time stood at 720 s.
Consider `COc1cc(CC(=O)N2CCc3cc(-c4ccno4)ccc32)cc(OC)c1`, for which the RP-LC retention time is 921 s.
Turning to `Cc1ccc(S(=O)(=O)Nc2ccc(-c3cn4cccnc4n3)cc2)cc1[N+](=O)[O-]`, the RP-LC retention time worked out at 713 s.
The figure for `CC(C)n1cnnc1CC1CCN(C(=O)C2CCN(S(=O)(=O)N3CCOCC3)CC2)CC1` is 614 s.
With `COc1ccc(N2CCN(C(=O)c3ccc4c(c3)N(C)C(=O)C3CCCCN43)CC2)cc1` (stereo not given), the RP-LC retention time was found to be 832 s.
Compound `O=C(Cn1nc2c(Oc3ccc(F)cc3)nccn2c1=O)NCc1ccccc1` came in with an RP-LC retention time of 770 s.
For the compound `Cc1ccc(N2CC(C(=O)N3CCC(NS(=O)(=O)c4ccc(C)cc4)CC3)CC2=O)cc1` (stereo not given), the RP-LC retention time came to 826 s.
The figure for `COC(=O)c1[nH]c(C)c(C(=O)C(C)N(CC(C)C)C(=O)c2ccc(OC)cc2)c1C` (stereo not given) is 859 s.
Turning to `O=S(=O)(Nc1cc(-c2ccoc2)no1)c1ccc(F)cc1F`, the RP-LC retention time turned out to be 806 s.
The figure for `COc1ccc(-c2nnc(-c3cccnc3NCc3cc(OC)cc(OC)c3)o2)cc1` is 1160 s.
The figure for `CC(C)(CO)NCc1ccc(-c2ccc(Cl)cc2Cl)o1` is 685 s.
The figure for `Cc1nc(-c2csc(S(=O)(=O)N3CCCC(C(=O)Nc4cccc(F)c4)C3)c2)no1` (stereo not given) is 978 s; for `O=c1c(S(=O)(=O)N2CCCC2)cccn1Cc1cccc(Cl)c1` it is 902 s; for `CCn1cc(C)c(C(=O)O)c1CC(=O)Nc1ccc(C)cn1` it is 680 s.
Compound `Cc1nc2cc(N3CC(C(=O)Nc4ccc(C)c(C)c4)CC3=O)ccc2o1` (stereo not given) showed an RP-LC retention time of 614 s.
`COc1cc(OC)cc(C(=O)N2CCCC2c2nc(-c3cccc(C(F)(F)F)c3)no2)c1` (stereo not given): the RP-LC retention time was 1120 s.
The figure for `Cc1ccccc1Nc1c(-c2cccc(Cl)c2)nc2cnccn12` is 1000 s; for `Cc1nc(-c2noc(-c3ccccc3)n2)cn1CC(=O)Nc1ccc(F)c(Cl)c1` it is 917 s; for `CCCCN(C)C(=O)CC1CCN(c2ccnc(NC)n2)CC1` it is 577 s.
As to `Cc1cc(C)cc(NC(=O)Cc2ccc(OC(C)(C)C(=O)O)cc2)c1`, the RP-LC retention time stood at 969 s.
The figure for `Cc1cccc(-c2noc(CN3N=NC4C(=O)N(c5ccc(C(C)C)cc5)C(=O)C43)n2)c1` (stereo not given) is 1150 s; for `CN(C)c1ccc(Nc2nc(-c3ccccc3)cs2)cc1` it is 705 s; for `CCN1C(=O)c2ccccc2Oc2ccc(C(=O)NCCc3ccccc3)cc21` it is 845 s.
The figure for `O=S(=O)(NCc1nc(-c2ccc(-c3csc(C4CC4)n3)cc2)no1)c1ccc(Cl)cc1` is 1190 s; for `Cc1cc(NC(=O)Nc2cc(F)ccc2F)no1` it is 894 s; for `CCn1cc(CCNC(=O)Nc2ccc(OC)cc2OC)c2cccnc21` it is 649 s.
In turn, `Cc1cc(C)n(-c2c3c(nc4c(-c5ccccc5)c(C)nn24)CCC3)n1` showed an RP-LC retention time of 982 s.
The figure for `Cc1c(Cl)cccc1-n1ccn2cc(-c3ccccc3)nc2c1=O` is 880 s; for `COC(=O)c1cc2c([nH]c1=O)CC(c1ccc(Cl)cc1)CC2=O` (stereo not given) it is 728 s; for `COCCCNC(=O)C1c2ccccc2C(=O)N(C2CCCC2)C1c1cccs1` (stereo not given) it is 836 s.
The figure for `CC(NC(=O)c1ccco1)c1nc(-c2ccc(N3CCCCCC3)cc2)no1` (stereo not given) is 1110 s; for `Cc1csc(-c2cc(S(=O)(=O)NCCC3=CCCCC3)cn2CC(=O)N2CCCCC2)n1` it is 1140 s; for `COCCNC(=O)C1(c2ccc(NC(=O)c3cccs3)cc2)CC1` it is 730 s.
The figure for `COc1ccc(-c2nc(-c3ccc4ncn(C(C)C)c4c3)no2)c(C)c1` is 881 s; for `CSc1cccc(NC(=O)C2CCN(C(=O)C3Sc4ccccc4NC3=O)CC2)c1` (stereo not given) it is 814 s; for `O=C(c1n[nH]c2ccccc12)N1CCCn2nc(-c3cccs3)cc2C1` it is 791 s.
`O=S(=O)(c1cc(-c2ccno2)cs1)N1CCN(c2ncccn2)CC1` showed an RP-LC retention time of 843 s.
As for `COc1ccc(N2CC(c3nc(-c4ccc5c(c4)OCO5)no3)CC2=O)cc1Cl` (stereo not given), the RP-LC retention time stood at 966 s.
`COCCNC(=O)c1nn(-c2ccc(F)cc2)nc1CO` came in with an RP-LC retention time of 730 s.
The figure for `CCc1ccc(OCc2nc(C)c(C(=O)Nc3nc(-c4ccc(C)cc4)cs3)s2)cc1` is 1420 s; for `CC(=O)Nc1ccc2c(c1)CN(C(=O)c1ccccc1F)C(C(=O)N1CCCC1)C2` (stereo not given) it is 646 s.
For the compound `CCc1nc2ncc(-c3ccnc(N4CCN(Cc5ccccc5)CC4)n3)c(C)n2n1`, the RP-LC retention time turned out to be 607 s.
In turn, `CCOc1ccc(NC(=O)Cn2nc3c4sc(N(C)C)nc4ncn3c2=O)cc1` showed an RP-LC retention time of 692 s.
With `O=C(Cn1nc2c(N3CCc4ccccc4C3)nccn2c1=O)Nc1ccccc1Cl`, the RP-LC retention time turned out to be 896 s.
`Cc1ccc2[nH]cc(CCNC(=O)c3ccc4nc(C(C)C)oc4c3)c2c1` displayed an RP-LC retention time of 925 s.
The figure for `CSc1ccc(-c2nc3cnccn3c2Nc2ccc(C)cc2)cc1` is 1000 s.
The figure for `COc1ncc(C(=O)NC2CCC(C)CC2)cn1` (stereo not given) is 748 s.
The figure for `Cn1cc(CC(=O)NCc2ccc(Cl)cc2)c2cccnc21` is 706 s.
`COCCn1nnnc1C1CC2(CCOCC2)C(=O)N1Cc1ccc(SC)cc1` (stereo not given) showed an RP-LC retention time of 777 s.
The figure for `CCCCN1CCN(S(=O)(=O)c2ccccc2-c2nc(-c3ccc(F)cc3)no2)CC1` is 752 s; for `C[C@@]1(O)CCN(Cc2cccc(C#N)c2)C[C@H]1N1CCCC1` it is 541 s.
The figure for `CCC1CCCCN1C(=O)CSc1nc2c3cc(OC)ccc3n(C)c2c(=O)n1CC` (stereo not given) is 1070 s.
The figure for `Cn1nc(CN2CCCC2)c2c1CCN(S(=O)(=O)c1ccc(F)cc1F)C2` is 622 s.

The values are drawn from the METLIN SMRT retention time set (Domingo-Almenara et al. 2019).
